The target of series [1] is T1, human muscarinic M1 receptor (Homo sapiens, UniProt P11229).
T1 construct: expressed in transfected cells
T1 sequence (P11229 1-460): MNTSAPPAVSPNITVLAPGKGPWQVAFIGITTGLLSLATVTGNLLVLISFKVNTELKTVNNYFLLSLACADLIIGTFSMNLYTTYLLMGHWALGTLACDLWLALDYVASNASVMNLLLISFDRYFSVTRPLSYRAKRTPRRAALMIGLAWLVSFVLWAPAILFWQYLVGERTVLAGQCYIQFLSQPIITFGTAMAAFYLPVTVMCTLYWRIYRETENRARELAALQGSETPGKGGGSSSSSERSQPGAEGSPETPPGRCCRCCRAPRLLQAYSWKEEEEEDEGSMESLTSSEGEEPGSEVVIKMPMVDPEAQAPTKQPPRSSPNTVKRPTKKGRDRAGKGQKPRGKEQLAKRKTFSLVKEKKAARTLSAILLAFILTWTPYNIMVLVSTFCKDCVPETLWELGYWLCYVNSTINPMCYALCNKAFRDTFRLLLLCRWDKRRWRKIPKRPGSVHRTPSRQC
The experiment in a line: Alphascreen Surefire phospho-ERK1/2 functional assay, M1. It is filed as cell-based. On the procedure:
ERK1/2 phosphorylation is a downstream consequence of both Gq/11 and Gi/o protein coupled receptor activation, making it highly suitable for the assessment of M1, M3 (Gq/11 coupled) and M2, M4 receptors (Gi/o coupled), rather than using different assay formats for different receptor subtypes. CHO cells stably expressing the human muscarinic M1, M2, M3 or M4 receptor were plated (25K/well) onto 96-well tissue culture plates in MEM-alpha+10% dialysed FBS. Once adhered, cells were serum-starved overnight. Agonist stimulation was performed by the addition of 5 μL agonist to the cells for 5 min (37° C.). Media was removed and 50 μL of lysis buffer added.

A short description of series [2]: Hepatocyte stability, CLint (in vitro hepatocytes), human. It is filed as in vitro ADME. The following applies: pooled cryopreserved hepatocytes, 1.0 million cells/mL, 37° C., read-out: in vitro intrinsic clearance (CLint). As to the method: (§1) Hepatocyte stability assays were performed using pooled cryopreserved hepatocytes (Bioreclamation). Test compounds prepared in DMSO, were incubated at an initial concentration of 1 μM (0.25% DMSO final, n=2) with hepatocytes at cell densities of 1.0 million cells/mL at 37° C. Aliquots were removed at 0.5, 5, 10, 15, 30, 60 and 120 minutes for termination of reactions and compound extraction with acetonitrile containing an analytical internal standard (0.5 μM carbamazepine). Samples were centrifuged and the supernatant fractions analysed for parent compound by mass spectrometry (LC-MS/MS). The amount of compound remaining (expressed as %) was determined from the MS response in each sample relative to that in the T=0 samples (normalised for internal standard). Ln plots of the % remaining were used to determine the half-life for compound disappearance using the relationship: Half-Life(min)=−0.693/λ (where λ is the slope of the Ln % remaining vs time curve).

Series [3] is described as follows: Hepatocyte stability, CLint (in vitro hepatocytes), mouse. The series is classed as in vitro ADME. Conditions: pooled cryopreserved hepatocytes, 1.0 million cells/mL, 37° C., read-out: in vitro intrinsic clearance (CLint). On the procedure: as §1
Series [4] is described as follows: Hepatocyte stability, CLint (in vitro hepatocytes), dog. The series is classed as in vitro ADME. Conditions: pooled cryopreserved hepatocytes, 1.0 million cells/mL, 37° C., read-out: in vitro intrinsic clearance (CLint). As to the method: as §1
For series [5], the system named is scPCP treated female Lister Hooded rats. Briefly: Attenuation of sub-chronic PCP-induced deficit in the operant reversal learning task. Conditions: p.o., 1 hour ptt. It is filed as in vivo, rat. As to the method: Investigate the ability of Example 1 (1, 3, 10 and 30 mg/kg, p.o., 1 hour pre-treatment time ptt) to attenuate the disruption of a cognitive task induced by sub-chronic treatment with phencyclidine (scPCP) in female Lister Hooded rats.
Female Lister Hooded rats were used for this experiment. The average weight of rats at the time of testing was 294 g±29 g. Rats were housed in groups of 3-5 under standard laboratory conditions under a 12 hr light: dark cycle (lights on at 0700 hr), and food restricted to 90% of free-feeding bodyweight (12 g of food per rat per day). Testing was carried out in the light phase. Rats were randomly assigned to two treatment groups and received vehicle, n=8 (0.9% saline solution, i.p.) or PCP, n=48 (2 mg/kg, i.p. twice daily for 7-days). On the day of testing, rats were randomly assigned to seven treatment groups (n=6-8 per group) to receive an acute treatment with Example 1 (1, 3, 10 and 30 mg/kg, p.o., 1 hour ptt) or vehicle. […]
Following habituation to the operant chambers, rats were trained to respond for food on an FR1 (Fixed Ratio 1) schedule of reinforcement with both levers active. […] Each session lasted 20 minutes and counts were recorded on each lever. […]
The day before each reversal learning task session, a full […] operant training session (as described above) was conducted to ensure stable responding. […] During this period, responses on both correct and incorrect levers were recorded. […] Responses made on the correct and incorrect levers were again recorded. […]
Data are presented as percent correct response (±S.E.M) with values for the initial and reversal phases are presented for the different drug treatment groups (FIG. 2). The percentage correct response data were used to determine whether there was a significant effect of drug on response accuracy (e.g. that might reflect cognitive dysfunction); Statistical significance was assumed when P<0.05 and was determined using one-way ANOVA in order to detect main effect of drug treatment in the initial and reversal phases.

A short description of series [6]: Hepatocyte stability, CLint (in vitro hepatocytes), rat. The series is classed as in vitro ADME. Conditions: pooled cryopreserved hepatocytes, 1.0 million cells/mL, 37° C., read-out: in vitro intrinsic clearance (CLint). As to the method:
as §1

Like-named read-outs stand apart in the source and are kept apart here. Bounds are passed on as bounds.

In the case of `CC(C)(C)NC(=O)C1CCN([C@H]2C[C@H]3CC[C@@H](C2)N3c2nc(C(F)(F)F)no2)CC1` [Example 1, N-tert-butyl-1-{(1R,3r,5S)-8-[3-(trifluoromethyl)-1,2,4-oxadiazol-5-yl]-8-azabicyclo[3.2.1]octan-3-yl}piperidine-4-carboxamide], the EC50 in series [1] (CHO cells stably expressing human M1, phospho-ERK1/2, read-out: pEC50 M1 (converted)) was 67.6 nM; in series [1] (as quoted in FIG. 1 legend, 50% target engagement, read-out: recombinant human EC50 (M1) (converted)), 65.2 nM; in series [1] (recombinant human EC50 (M1), as quoted in FIG. 1 legend, 50% target engagement), 86 nM. Also, the hepatocyte CLint at 1 μM was less than 5 µL/min/1e6 cells in series [2], 7 µL/min/1e6 cells in series [3], 8 µL/min/1e6 cells in series [4] and 8 µL/min/1e6 cells in series [6]. For the same molecule, the “percent correct responding in the reversal phase vs scPCP group” value in series [5] (1 mg/kg, P<0.05) is recorded as “increased percent correct responding”; in series [5] (3 mg/kg, P<0.05) it was “increased percent correct responding”; in series [5] (10 mg/kg, P<0.01), “increased percent correct responding”.
